# Test results taken from ChEMBL document CHEMBL1201862, “PubChem BioAssay data set” (2004).
#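 These data come from cells grown in 96-well plates and exposed to compound for 48 hours at five concentrations. Abbreviation: GI50, concentration required for 50% inhibition of growth.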 The source made the active and inactive calls. No stated cut-off is given here; in the data, active = GI50 up to about 1.1 µM and inactive = higher.
# What was measured:
# Assay in all cases: NCI-60 cell line screen, 48 h
# Hs-578T = tested on: Hs-578T
# SNB-19 = tested on: SNB-19
# U-251 = tested on: U-251
# 786-0 = tested on: 786-0
# IGROV-1 = tested on: IGROV-1
# OVCAR-5 = tested on: OVCAR-5
# SR = tested on: SR
# CAKI-1 = tested on: CAKI-1
# Malme-3M = tested on: Malme-3M
# ACHN = tested on: ACHN
# UACC-62 = tested on: UACC-62
# EKVX = tested on: EKVX
# SW-620 = tested on: SW-620
# RXF 393 = tested on: RXF 393
# MDA-N = tested on: MDA-N
# KM12 = tested on: KM12
# CCRF-CEM = tested on: CCRF-CEM
# SF-539 = tested on: SF-539
# A549 = tested on: A549
# LOX IMVI = tested on: LOX IMVI
SMILES,GI50 (Hs-578T),GI50 (SNB-19),GI50 (U-251),GI50 (786-0),GI50 (IGROV-1),GI50 (OVCAR-5),GI50 (SR),GI50 (CAKI-1),GI50 (Malme-3M),GI50 (ACHN),GI50 (UACC-62),GI50 (EKVX),GI50 (SW-620),GI50 (RXF 393),GI50 (MDA-N),GI50 (KM12),GI50 (CCRF-CEM),GI50 (SF-539),GI50 (A549),GI50 (LOX IMVI)
O=C1C=CC(=O)c2c(O)c(N(CCCl)CCCl)c(Cl)c(O)c21,6.25 µM (inactive),> 10 µM (inactive),5.73 µM (inactive),4.54 µM (inactive),> 6.68 µM (inactive),> 7.21 µM (inactive),4.51 µM (inactive),4.66 µM (inactive),4.37 µM (inactive),4.13 µM (inactive),> 6.07 µM (inactive),> 8.91 µM (inactive),3.75 µM (inactive),> 5.2 µM (inactive),4.28 µM (inactive),6.4 µM (inactive),1.25 µM (inactive),5.24 µM (inactive),> 9.71 µM (inactive),4.49 µM (inactive)
CC1(C)C2CCC1(CS(=O)(=O)Nc1ccccc1)C(=O)C2 (stereo not given),> 100 µM (inactive),> 100 µM (inactive),> 100 µM (inactive),> 100 µM (inactive),> 100 µM (inactive),> 100 µM (inactive),35.5 µM (inactive),> 100 µM (inactive),> 100 µM (inactive),> 100 µM (inactive),> 100 µM (inactive),> 100 µM (inactive),> 100 µM (inactive),> 100 µM (inactive),> 100 µM (inactive),> 100 µM (inactive),11.7 µM (inactive),> 100 µM (inactive),> 100 µM (inactive),> 100 µM (inactive)
Cc1ccc(S(=O)(=O)N(CC(O)COc2ccccc2)c2ccccc2Cl)cc1 (stereo not given),10.9 µM (inactive),18.2 µM (inactive),14.4 µM (inactive),18.4 µM (inactive),12.5 µM (inactive),23.3 µM (inactive),13.9 µM (inactive),15.5 µM (inactive),14.5 µM (inactive),16.3 µM (inactive),8.61 µM (inactive),13.6 µM (inactive),17.8 µM (inactive),16 µM (inactive),16.3 µM (inactive),14.6 µM (inactive),13.9 µM (inactive),18 µM (inactive),11.8 µM (inactive),17.3 µM (inactive)
C/C=C1\CC2C(=O)CCC2C2c3ccccc3OC12 (stereo not given),> 100 µM (inactive),> 100 µM (inactive),> 100 µM (inactive),> 100 µM (inactive),> 100 µM (inactive),> 100 µM (inactive),> 100 µM (inactive),> 100 µM (inactive),> 100 µM (inactive),> 100 µM (inactive),> 100 µM (inactive),> 100 µM (inactive),> 100 µM (inactive),> 100 µM (inactive),0.0718 µM (active),> 100 µM (inactive),> 100 µM (inactive),> 100 µM (inactive),> 100 µM (inactive),> 100 µM (inactive)
CC(C)S(=O)(=O)ON1C(=O)c2ccc(N(C)C)cc2C1=O,> 10 µM (inactive),40.4 µM (inactive),15.8 µM (inactive),4.66 µM (inactive),20.8 µM (inactive),18.8 µM (inactive),2.38 µM (inactive),5.35 µM (inactive),2.93 µM (inactive),15.6 µM (inactive),15.5 µM (inactive),22.3 µM (inactive),11.4 µM (inactive),13.2 µM (inactive),4.01 µM (inactive),21.4 µM (inactive),0.918 µM (active),19 µM (inactive),25 µM (inactive),13.2 µM (inactive)
O=C1c2ccccc2-c2c1c1ccccc1c(=O)n2-c1ccccc1,8.36 µM (inactive),5.7 µM (inactive),9.18 µM (inactive),3.07 µM (inactive),13.8 µM (inactive),45.5 µM (inactive),> 100 µM (inactive),11.8 µM (inactive),> 62.5 µM (inactive),5.09 µM (inactive),11.1 µM (inactive),23.3 µM (inactive),35.4 µM (inactive),4.59 µM (inactive),> 79.1 µM (inactive),14.6 µM (inactive),> 100 µM (inactive),4.91 µM (inactive),13.1 µM (inactive),68.5 µM (inactive)
O=C1Nc2ccccc2/C1=C1/Nc2ccccc2/C1=N\OCCNCC(O)C(O)C(O)C(O)CO (stereo not given),13.4 µM (inactive),13.6 µM (inactive),12.9 µM (inactive),18.1 µM (inactive),6.62 µM (inactive),> 50 µM (inactive),9.55 µM (inactive),38.5 µM (inactive),11.2 µM (inactive),> 50 µM (inactive),8.93 µM (inactive),30.3 µM (inactive),15.9 µM (inactive),12.5 µM (inactive),9.89 µM (inactive),5.14 µM (inactive),10.5 µM (inactive),14.1 µM (inactive),44.4 µM (inactive),8.53 µM (inactive)
CN(C)CCCOC(=O)C(O)(Cc1ccccc1)C1CC1 (stereo not given),> 100 µM (inactive),> 100 µM (inactive),> 100 µM (inactive),> 100 µM (inactive),> 100 µM (inactive),> 100 µM (inactive),> 100 µM (inactive),> 100 µM (inactive),> 100 µM (inactive),> 100 µM (inactive),> 100 µM (inactive),> 100 µM (inactive),> 100 µM (inactive),> 100 µM (inactive),> 100 µM (inactive),> 100 µM (inactive),> 100 µM (inactive),> 100 µM (inactive),> 100 µM (inactive),> 100 µM (inactive)
